ChEMBL document CHEMBL1201862, “PubChem BioAssay data set” (2004)
Several values for one entry are separate records, joined by “and”; a condition that tells them apart may be missing. Equal entries are not always repeated.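 Protocol summary: plate cells (96-well), add compound at 5 concentrations, incubate 48 h, interpolate endpoints linearly. The concentration for 50% growth inhibition is given as GI50.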 Activity calls are given as the source filed them. Cut-off read from the data, not from the text of the source: active = GI50 up to about 1.1 µM and inactive = higher.

What was measured:
Assay in all cases: NCI anticancer screen, dose series, 48 h
[1] = tested on: NCI-H522
[2] = tested on: LXFL 529
[3] = tested on: DMS-273
[4] = tested on: Malme-3M
[5] = tested on: OVCAR-8
[6] = tested on: CCRF-CEM
[7] = tested on: UO-31
[8] = tested on: MOLT-4
[9] = tested on: SW-620
[10] = tested on: HCT-116
[11] = tested on: RXF 393
[12] = tested on: SK-MEL-2
[13] = tested on: SNB-19
[14] = tested on: RXF 631
[15] = tested on: SR
[16] = tested on: NCI-H23
[17] = tested on: OVCAR-3
[18] = tested on: SF-539
[19] = tested on: EKVX
[20] = tested on: SK-OV-3
[21] = tested on: K562
[22] = tested on: UACC-257
[23] = tested on: LOX IMVI
[24] = tested on: KM-20L2
[25] = tested on: M14
[26] = tested on: NCI-H226
[27] = tested on: KM12
[28] = tested on: M19-MEL
[29] = tested on: CAKI-1
[30] = tested on: SNB-78
[31] = tested on: SF-295
[32] = tested on: HT-29
[33] = tested on: SF-268
[34] = tested on: HOP-18
[35] = tested on: HL-60
[36] = tested on: A549
[37] = tested on: OVCAR-4
[38] = tested on: 786-0
[39] = tested on: DLD-1
[40] = tested on: TK-10
[41] = tested on: COLO 205
[42] = tested on: SK-MEL-28
[43] = tested on: HOP-62
[44] = tested on: SK-MEL-5
[45] = tested on: HCT-15
[46] = tested on: SN12C
[47] = tested on: UACC-62
[48] = tested on: IGROV-1
[49] = tested on: XF498
[50] = tested on: ACHN
[51] = tested on: OVCAR-5
[52] = tested on: A498
[53] = tested on: NCI-H460
[54] = tested on: U-251
[55] = tested on: HCC 2998
[56] = tested on: SNB-75
[57] = tested on: HOP-92
[58] = tested on: RPMI-8226
[59] = tested on: DMS-114

Measured: GI50

N#CC(c1ccccc1)c1nc2ccc(N)cc2[n+]([O-])c1C(C#N)c1ccccc1 (centres undefined)
active: [44] 1 µM
inactive: [1] 46.9 µM | [2] 51.1 µM | [3] 45.9 µM | [4] 99.5 µM | [5] 56.4 µM | [6] 46.6 µM | [7] 68.2 µM | [8] 53.7 µM | [9] 57.4 µM | [10] 54.1 µM | [11] 38.9 µM | [12] 40.2 µM | [13] > 100 µM | [14] 86.9 µM | [15] 23.8 µM | [16] 67.8 µM | [17] 91.8 µM | [18] > 100 µM | [19] > 100 µM | [20] > 100 µM | [21] 44.5 µM | [22] > 100 µM | [23] 64.9 µM | [24] 75.3 µM | [25] 86.7 µM | [26] > 100 µM | [27] 60.7 µM | [28] 55.1 µM | [29] 69.8 µM | [30] > 100 µM | [31] > 100 µM | [32] 58.7 µM | [33] > 100 µM | [34] > 100 µM | [35] 34.9 µM | [36] 57.8 µM | [37] 74 µM | [38] > 100 µM | [39] 43.6 µM | [40] > 100 µM | [41] 76.4 µM | [42] > 100 µM | [43] > 100 µM | [46] 79.1 µM | [47] 47.3 µM | [48] > 100 µM | [49] 48.5 µM | [50] 58.1 µM | [51] > 100 µM | [52] > 100 µM | [53] 73.3 µM | [54] 59.6 µM
46 µM: [45]

O=c1ncccn1[C@@H]1O[C@H](CO)[C@@H](O)[C@@H]1F
inactive: [55] > 100 µM | [1] > 100 µM | [2] > 100 µM | [3] > 100 µM | [4] > 100 µM and > 67.1 µM | [5] > 100 µM and > 95.9 µM | [8] > 100 µM | [11] > 100 µM | [12] > 100 µM | [13] > 100 µM | [56] > 100 µM and > 50.9 µM | [14] > 51.6 µM | [15] > 68.2 µM | [16] > 100 µM | [17] > 100 µM | [19] > 100 µM | [20] > 100 µM | [22] > 100 µM | [23] > 100 µM and > 59.2 µM | [24] > 100 µM | [57] > 100 µM | [25] > 100 µM | [26] > 100 µM | [28] > 100 µM | [29] > 100 µM | [30] > 100 µM | [31] > 100 µM | [32] > 100 µM and > 61.9 µM | [33] > 100 µM | [34] > 100 µM | [35] > 100 µM | [58] > 100 µM | [36] > 100 µM | [37] > 100 µM | [38] > 100 µM | [40] > 100 µM and > 69.5 µM | [41] > 100 µM | [42] > 64 µM | [43] > 68.5 µM | [44] > 100 µM | [59] > 100 µM and > 58.7 µM | [46] > 100 µM | [48] > 100 µM | [49] > 100 µM | [50] > 100 µM | [51] > 100 µM | [52] > 100 µM | [54] > 100 µM

O=C(O)CC(O)(c1ccccc1C(=O)O)c1cccc2ccccc12 (centres undefined)
> 100 µM: [45]
inactive: [1] > 100 µM | [2] > 100 µM | [3] > 100 µM | [4] > 100 µM | [5] > 100 µM | [6] > 100 µM | [7] > 100 µM | [8] > 100 µM | [9] > 100 µM | [10] > 100 µM | [11] > 100 µM | [12] > 100 µM | [13] > 100 µM | [56] > 100 µM | [14] > 100 µM | [15] > 100 µM | [16] > 100 µM | [17] > 100 µM | [18] > 100 µM | [19] > 100 µM | [20] > 100 µM | [21] > 100 µM | [22] > 100 µM | [23] > 100 µM | [57] > 100 µM | [25] > 100 µM | [26] > 100 µM | [27] > 100 µM | [28] > 100 µM | [29] > 100 µM | [30] > 100 µM | [31] > 100 µM | [32] > 100 µM | [33] > 100 µM | [34] > 100 µM | [35] > 100 µM | [58] > 100 µM | [36] > 100 µM | [37] > 100 µM | [38] > 100 µM | [39] > 100 µM | [40] > 100 µM | [41] > 100 µM | [42] > 100 µM | [43] > 100 µM | [44] > 100 µM | [59] > 100 µM | [46] > 100 µM | [47] > 100 µM | [48] > 100 µM | [49] > 100 µM | [50] > 100 µM | [51] > 100 µM | [52] > 100 µM | [53] > 100 µM | [54] > 100 µM
